Measured values reported in ChEMBL document CHEMBL3822364, “Synthesis, characterization and antimicrobial activity of novel Schiff base tethered boronate esters of 1,2-O-isopropylidene-α-d-xylofuranose” (2016).
In brackets after ≈: the same amount, converted by molar mass. Activity calls are given as the source filed them. No cut-off for these calls is given here.

Columns and labels:
[1] = tested on: Candida albicans; test: Antifungal activity against Candida albicans MTCC 3017 assessed as zone of inhibition at 100 ug/well measured after 48 hrs by agar well diffusion method; type: functional; settings: MTCC 3017, 48 h, read-out: DIZ
[2] = tested on: Salmonella typhi; test: Antibacterial activity against Salmonella typhi assessed as zone of inhibition at 100 ug/well measured after 24 hrs by agar well diffusion method; type: functional, Salmonella enterica subsp. enterica serovar Typhi; settings: Salmonella enterica, read-out: DIZ
[3] = tested on: Micrococcus luteus; test: Antibacterial activity against Micrococcus luteus MTCC 106 assessed as zone of inhibition at 100 ug/well measured after 24 hrs by agar well diffusion method; type: functional; settings: MTCC 106, 24 h, read-out: DIZ
[4] = tested on: Aspergillus fumigatus; test: Antifungal activity against Aspergillus fumigatus MTCC 343 assessed as zone of inhibition at 100 ug/well measured after 48 hrs by agar well diffusion method; type: functional; settings: MTCC 343, 48 h, read-out: DIZ
[5] = tested on: Candida albicans; test: Antifungal activity against Candida albicans MTCC 3017 measured after 48 hrs by NCCL protocol based broth dilution method; type: functional; settings: MTCC 3017, 48 h
[6] = tested on: Staphylococcus aureus; test: Antibacterial activity against Staphylococcus aureus MTCC 3160 assessed as zone of inhibition at 100 ug/well measured after 24 hrs by agar well diffusion method; type: functional; settings: MTCC 3160, 24 h, read-out: DIZ
[7] = tested on: Streptococcus mutans; test: Antibacterial activity against Streptococcus mutans MTCC 497 assessed as zone of inhibition at 100 ug/well measured after 24 hrs by agar well diffusion method; type: functional; settings: MTCC 497, 24 h, read-out: DIZ
[8] = tested on: Streptococcus mutans; test: Antibacterial activity against Streptococcus mutans MTCC 497 measured after 24 hrs by NCCL protocol based broth dilution method; type: functional; settings: MTCC 497, 24 h
[9] = tested on: Micrococcus luteus; test: Antibacterial activity against Micrococcus luteus MTCC 106 measured after 24 hrs by NCCL protocol based broth dilution method; type: functional; settings: MTCC 106, 24 h
[10] = tested on: Salmonella paratyphi; test: Antibacterial activity against Salmonella paratyphi assessed as zone of inhibition at 100 ug/well measured after 24 hrs by agar well diffusion method; type: functional, Salmonella enterica subsp. enterica serovar Paratyphi A; settings: Salmonella enterica, read-out: DIZ
[11] = tested on: Salmonella typhi; test: Antibacterial activity against Salmonella typhi measured after 24 hrs by NCCL protocol based broth dilution method; type: functional
[12] = tested on: Klebsiella pneumoniae; test: Antibacterial activity against Klebsiella pneumoniae MTCC 3384 measured after 24 hrs by NCCL protocol based broth dilution method; type: functional
[13] = tested on: Staphylococcus aureus; test: Antibacterial activity against Staphylococcus aureus MTCC 3160 measured after 24 hrs by NCCL protocol based broth dilution method; type: functional; settings: MTCC 3160, 24 h
[14] = tested on: Salmonella paratyphi; test: Antibacterial activity against Salmonella paratyphi measured after 24 hrs by NCCL protocol based broth dilution method; type: functional
[15] = tested on: Klebsiella pneumoniae; test: Antibacterial activity against Klebsiella pneumoniae MTCC 3384 assessed as zone of inhibition at 100 ug/well measured after 24 hrs by agar well diffusion method; type: functional; settings: MTCC 3384, 24 h, read-out: DIZ
[16] = tested on: Aspergillus fumigatus; test: Antifungal activity against Aspergillus fumigatus MTCC 343 measured after 48 hrs by NCCL protocol based broth dilution method; type: functional

Compound | zone of inhibition at 100 µg/disc [1] | zone of inhibition at 100 µg/disc [2] | zone of inhibition at 100 µg/disc [3] | zone of inhibition at 100 µg/disc [4] | MIC [5] | zone of inhibition at 100 µg/disc [6] | zone of inhibition at 100 µg/disc [7] | MIC [8] | MIC [9] | zone of inhibition at 100 µg/disc [10] | MIC ([11]; Salmonella enterica subsp. enterica serovar Typhi) | MIC [12] | MIC [13] | MIC ([14]; Salmonella enterica subsp. enterica serovar Paratyphi A) | zone of inhibition at 100 µg/disc [15] | MIC [16] | MIC ([11]; Salmonella enterica) | MIC ([12]; MTCC 3384, 24 h) | MIC ([14]; Salmonella enterica) | MIC ([16]; MTCC 343, 48 h)
CC1(C)O[C@H]2O[C@@H]3COC(c4ccc(/C=N\c5ccc(F)cc5)cc4)O[C@@H]3[C@H]2O1 (some centres not stated) | 6 mm | 0 mm | 0 mm | 0 mm | 500 µg/mL (≈ 1250 µM) | 8 mm | 6 mm | 250 µg/mL (≈ 626 µM) | 500 µg/mL (≈ 1250 µM) | 0 mm | inactive | inactive | 500 µg/mL (≈ 1250 µM) | inactive | 0 mm | inactive |  |  |  | 
CC1(C)O[C@H]2O[C@@H]3COB(c4ccccc4F)O[C@@H]3[C@H]2O1 | 11 mm | 11 mm | 8 mm | 9 mm | 500 µg/mL (≈ 1700 µM) | 11 mm | 12 mm | 125 µg/mL (≈ 425 µM) | 250 µg/mL (≈ 850 µM) | 9 mm |  |  | 125 µg/mL (≈ 425 µM) |  | 12 mm |  | 250 µg/mL (≈ 850 µM) | 250 µg/mL (≈ 850 µM) | 125 µg/mL (≈ 425 µM) | 500 µg/mL (≈ 1700 µM)
COc1ccc(/C=N/c2cccc(B3OC[C@H]4O[C@@H]5OC(C)(C)O[C@@H]5[C@H]4O3)c2)c(O)c1 | 13 mm | 21 mm | 21 mm | 0 mm | 250 µg/mL (≈ 588 µM) | 15 mm | 22 mm | 62.5 µg/mL (≈ 147 µM) | 62.5 µg/mL (≈ 147 µM) | 0 mm |  |  | 125 µg/mL (≈ 294 µM) |  | 19 mm |  | 62.5 µg/mL (≈ 147 µM) | 62.5 µg/mL (≈ 147 µM) | 250 µg/mL (≈ 588 µM) | 250 µg/mL (≈ 588 µM)
CC(C)c1ccc(/N=C/c2ccc(B3OC[C@H]4O[C@@H]5OC(C)(C)O[C@@H]5[C@H]4O3)cc2)cc1 | 12 mm | 22 mm | 13 mm | 0 mm | 250 µg/mL (≈ 593 µM) | 16 mm | 19 mm | 125 µg/mL (≈ 297 µM) | 250 µg/mL (≈ 593 µM) | 0 mm |  |  | 125 µg/mL (≈ 297 µM) |  | 24 mm |  | 62.5 µg/mL (≈ 148 µM) | 31.2 µg/mL (≈ 74.2 µM) | 500 µg/mL (≈ 1190 µM) | 500 µg/mL (≈ 1190 µM)
Cc1ccc(/N=C/c2cccc(B(O)O)c2)cc1 | 0 mm | 8 mm | 0 mm | 0 mm | 500 µg/mL (≈ 2090 µM) | 8 mm | 9 mm | 250 µg/mL (≈ 1050 µM) | 500 µg/mL (≈ 2090 µM) | 0 mm |  |  | 500 µg/mL (≈ 2090 µM) |  | 0 mm |  | 500 µg/mL (≈ 2090 µM) | 500 µg/mL (≈ 2090 µM) | 500 µg/mL (≈ 2090 µM) | 500 µg/mL (≈ 2090 µM)
CCOc1cccc(/C=N/c2cccc(B3OC[C@H]4O[C@@H]5OC(C)(C)O[C@@H]5[C@H]4O3)c2)c1O | 18 mm | 24 mm | 15 mm | 21 mm | 62.5 µg/mL (≈ 142 µM) | 0 mm | 16 mm | 125 µg/mL (≈ 285 µM) | 125 µg/mL (≈ 285 µM) | 14 mm |  |  | 250 µg/mL (≈ 569 µM) |  | 12 mm |  | 31.2 µg/mL (≈ 71.1 µM) | 125 µg/mL (≈ 285 µM) | 250 µg/mL (≈ 569 µM) | 62.5 µg/mL (≈ 142 µM)
CC1(C)O[C@H]2O[C@@H]3COB(c4cccc(/C=N/c5ccc(F)cc5)c4)O[C@@H]3[C@H]2O1 | 19 mm | 24 mm | 11 mm | 0 mm | 62.5 µg/mL (≈ 157 µM) | 20 mm | 18 mm | 62.5 µg/mL (≈ 157 µM) | 125 µg/mL (≈ 315 µM) | 21 mm |  |  | 31.2 µg/mL (≈ 78.7 µM) |  | 16 mm |  | 31.2 µg/mL (≈ 78.7 µM) | 62.5 µg/mL (≈ 157 µM) | 31.2 µg/mL (≈ 78.7 µM) | 250 µg/mL (≈ 629 µM)
CC1(C)O[C@H]2O[C@@H]3COB(c4cccc(/C=N/c5ccc(Br)cc5)c4)O[C@@H]3[C@H]2O1 | 16 mm | 22 mm | 14 mm | 0 mm | 125 µg/mL (≈ 273 µM) | 13 mm | 20 mm | 62.5 µg/mL (≈ 136 µM) | 125 µg/mL (≈ 273 µM) | 21 mm |  |  | 250 µg/mL (≈ 546 µM) |  | 18 mm |  | 31.2 µg/mL (≈ 68.2 µM) | 62.5 µg/mL (≈ 136 µM) | 62.5 µg/mL (≈ 136 µM) | 250 µg/mL (≈ 546 µM)
CC(C)c1ccc(/N=C/c2cccc(B3OC[C@H]4O[C@@H]5OC(C)(C)O[C@@H]5[C@H]4O3)c2)cc1 | 16 mm | 23 mm | 12 mm | 0 mm | 250 µg/mL (≈ 593 µM) | 13 mm | 16 mm | 125 µg/mL (≈ 297 µM) | 250 µg/mL (≈ 593 µM) | 21 mm |  |  | 250 µg/mL (≈ 593 µM) |  | 16 mm |  | 62.5 µg/mL (≈ 148 µM) | 125 µg/mL (≈ 297 µM) | 125 µg/mL (≈ 297 µM) | 500 µg/mL (≈ 1190 µM)
COc1ccc(/N=C/c2ccc(B3OC[C@H]4O[C@@H]5OC(C)(C)O[C@@H]5[C@H]4O3)cc2)cc1 | 17 mm | 19 mm | 11 mm | 0 mm | 125 µg/mL (≈ 305 µM) | 11 mm | 12 mm | 250 µg/mL (≈ 611 µM) | 250 µg/mL (≈ 611 µM) | 13 mm |  |  | 500 µg/mL (≈ 1220 µM) |  | 18 mm |  | 125 µg/mL (≈ 305 µM) | 125 µg/mL (≈ 305 µM) | 250 µg/mL (≈ 611 µM) | 500 µg/mL (≈ 1220 µM)
CC1(C)O[C@H]2O[C@@H]3COB(c4cccc(/N=C/c5cc([N+](=O)[O-])ccc5O)c4)O[C@@H]3[C@H]2O1 | 23 mm | 28 mm | 25 mm | 22 mm | 31.2 µg/mL (≈ 71 µM) | 21 mm | 23 mm | 31.2 µg/mL (≈ 71 µM) | 15.6 µg/mL (≈ 35.5 µM) | 21 mm |  |  | 31.2 µg/mL (≈ 71 µM) |  | 18 mm |  | 15.6 µg/mL (≈ 35.5 µM) | 62.5 µg/mL (≈ 142 µM) | 31.2 µg/mL (≈ 71 µM) | 62.5 µg/mL (≈ 142 µM)
CC1(C)O[C@H]2O[C@@H]3COB(c4cccc(/N=C/c5ccc(Br)cc5O)c4)O[C@@H]3[C@H]2O1 | 17 mm | 24 mm | 21 mm | 0 mm | 125 µg/mL (≈ 264 µM) | 13 mm | 17 mm | 125 µg/mL (≈ 264 µM) | 62.5 µg/mL (≈ 132 µM) | 14 mm |  |  | 250 µg/mL (≈ 527 µM) |  | 12 mm |  | 31.2 µg/mL (≈ 65.9 µM) | 125 µg/mL (≈ 264 µM) | 250 µg/mL (≈ 527 µM) | 500 µg/mL (≈ 1050 µM)
